Experiments:
ALL3.1 (B-ALL) = experiment: Net production of TRP metabolites in media samples, ALL3.1; assay type: cell-based
KARPAS231 (B-ALL) = experiment: Net production of TRP metabolites in media samples, KARPAS231; assay type: cell-based
THP-1 (monocyte) = experiment: Net production of TRP metabolites in media samples, THP-1; assay type: cell-based
CCF-STTG1 (astrocytoma) = experiment: Net production of TRP metabolites in media samples, CCF-STTG1; assay type: cell-based, human
Excerpt: (§1) Under physiological conditions in the brain, kynurenine metabolism is driven by microglial cells and astrocytes with preferential production of QUIN and KA respectively. […] This may have been due to T cells producing cytokines and/or intermediate metabolites that are further metabolized to QUIN by the cells. In order to identify specific factors that may lead to tryptophan-kynurenine pathway up-regulation for QUIN production, we tested a panel of cytokine and chemokines implicated in NTX and CRS. […] We initially evaluated the panel of the select factors individually (FIGS. 16 A-B). We selected several cytokines based on their effect on rate-limiting enzymes for QUIN production. These included IFNγ, TNF, […], CXCL10 and […]. These enzymes were selected based on their regulation of key enzymes, KMO and KYNU, which may lead to supraphysiological accumulation of QUIN. These factors were further evaluated, individually or in combination, on astrocytoma, microglial, and primary monocyte-derived macrophages for mRNA levels of kynurenine pathway enzymes and kynurenine metabolites production (FIG. 17).

CCRF-SB (B-ALL) = experiment: Net production of TRP metabolites in media samples, CCRF-SB; assay type: cell-based
HCN2 (cortical neuron) = experiment: Net production of TRP metabolites in media samples, HCN2; assay type: cell-based
SUP-B15 (B-ALL) = experiment: Net production of TRP metabolites in media samples, SUP-B15; assay type: cell-based
RS4; 11 (B-ALL) = experiment: Net production of TRP metabolites in media samples, RS4; 11; assay type: cell-based
DOAY (medulloblastoma) = experiment: Net production of TRP metabolites in media samples, DOAY; assay type: cell-based
BV173 (B-ALL) = experiment: Net production of TRP metabolites in media samples, BV173; assay type: cell-based
HMC3 (microglia) = experiment: Net production of TRP metabolites in media samples, HMC3; assay type: cell-based, human
Excerpt: as §1

In the case of TNFα, the “Net production of TRP metabolites in media samples: 3-HK” value (“Net production … 3-HK” below) (ALL3.1 (B-ALL)) was 6.26 ± 7.3, the “Net production of TRP metabolites in media samples: KA” value (shortened to “Net production … KA”) (ALL3.1 (B-ALL)) was −4.56 ± 5.5 and the “Net production of TRP metabolites in media samples: KYN” value (shortened to “Net production … KYN”) (ALL3.1 (B-ALL)) was 76.98 ± 139.6. The “Net production of TRP metabolites in media samples: QUIN” value (“Net production … QUIN” below) (ALL3.1 (B-ALL)) was −13.1 ± 32.3, the “Net production … 3-HK” value (KARPAS231 (B-ALL)) was 4.94 ± 3.4 and the “Net production of TRP metabolites in media samples: HAA” value (shortened to “Net production … HAA”) (KARPAS231 (B-ALL)) was 14.18 ± 4.6. For the same substance, the “Net production … KA” value (KARPAS231 (B-ALL)) was −7.72 ± 36.9, the “Net production … KYN” value (KARPAS231 (B-ALL)) was −72.84 ± 36.9 and the “Net production … QUIN” value (KARPAS231 (B-ALL)) was −44.96 ± 36.3. The “Net production … 3-HK” value (THP-1 (monocyte)) was 0.82 ± 1.5, the “Net production … KA” value (THP-1 (monocyte)) was −9.9 ± 5 and the “Net production … KYN” value (THP-1 (monocyte)) was 298.62 ± 61.8. For the same substance, the “Net production … QUIN” value (THP-1 (monocyte)) was 16.24 ± 51.4, the “Net production … 3-HK” value (CCF-STTG1 (astrocytoma)) was −9.8 ± 2.6 and the “Net production … HAA” value (CCF-STTG1 (astrocytoma)) was 10.74 ± 0.9. The “Net production … KA” value (CCF-STTG1 (astrocytoma)) was 1.36 ± 0.5, the “Net production … KYN” value (CCF-STTG1 (astrocytoma)) was 2853.38 ± 129.6 and the “Net production … QUIN” value (CCF-STTG1 (astrocytoma)) was 12.92 ± 4. For the same substance, the “Net production … 3-HK” value (CCRF-SB (B-ALL)) was 28.96 ± 22.5, the “Net production … HAA” value (CCRF-SB (B-ALL)) was 11.34 ± 3.9 and the “Net production … KA” value (CCRF-SB (B-ALL)) was −9.3 ± 4.7. The “Net production … KYN” value (CCRF-SB (B-ALL)) was 361.62 ± 256.4, the “Net production … QUIN” value (CCRF-SB (B-ALL)) was −70.3 ± 30.4 and the “Net production … 3-HK” value (HCN2 (cortical neuron)) was 4.82 ± 1.9. The “Net production … HAA” value (HCN2 (cortical neuron)) was 4.52 ± 0.3, the “Net production … KA” value (HCN2 (cortical neuron)) was 1.56 ± 1.5 and the “Net production … KYN” value (HCN2 (cortical neuron)) was 5.4 ± 10. The “Net production … QUIN” value (HCN2 (cortical neuron)) was 8.44 ± 12.2, the “Net production … 3-HK” value (SUP-B15 (B-ALL)) was 17.56 ± 14^ and the “Net production … HAA” value (SUP-B15 (B-ALL)) was 6.58 ± 0.8. The “Net production … KA” value (SUP-B15 (B-ALL)) was −9.16 ± 3^, the “Net production … KYN” value (SUP-B15 (B-ALL)) was 303.8 ± 191 and the “Net production … QUIN” value (SUP-B15 (B-ALL)) was −67.3 ± 23^. For the same substance, the “Net production … 3-HK” value (RS4; 11 (B-ALL)) was −0.34 ± 1.9, the “Net production … KA” value (RS4; 11 (B-ALL)) was −5.46 ± 5.7 and the “Net production … KYN” value (RS4; 11 (B-ALL)) was 4.38 ± 25.2. The “Net production … QUIN” value (RS4; 11 (B-ALL)) was 42.26 ± 39^, the “Net production … 3-HK” value (DOAY (medulloblastoma)) was −8.84 ± 1.2 and the “Net production … HAA” value (DOAY (medulloblastoma)) was 10.14 ± 0.8. For the same substance, the “Net production … KA” value (DOAY (medulloblastoma)) was 4.52 ± 0.7, the “Net production … KYN” value (DOAY (medulloblastoma)) was 35.94 ± 12.9 and the “Net production … QUIN” value (DOAY (medulloblastoma)) was 19.86 ± 7.1. The “Net production … 3-HK” value (BV173 (B-ALL)) was 10.36 ± 9.9, the “Net production … KA” value (BV173 (B-ALL)) was −3.16 ± 2.1 and the “Net production … KYN” value (BV173 (B-ALL)) was 216.84 ± 141.1 ™. The “Net production … QUIN” value (BV173 (B-ALL)) was −8.44 ± 48.4, the “Net production … 3-HK” value (HMC3 (microglia)) was 7.44 ± 18 and the “Net production … HAA” value (HMC3 (microglia)) was −2.14 ± 0.45. For the same substance, the “Net production … KA” value (HMC3 (microglia)) was 3.38 ± 2.9, the “Net production … KYN” value (HMC3 (microglia)) was 506.02 ± 251^ and the “Net production … QUIN” value (HMC3 (microglia)) was 52.84 ± 27.6.
With IFNγ: cytokine the “Net production … 3-HK” value (ALL3.1 (B-ALL)) was 8.76 ± 7.8, the “Net production … KA” value (ALL3.1 (B-ALL)) was −3.32 ± 3.4 and the “Net production … KYN” value (ALL3.1 (B-ALL)) was 55.94 ± 132. The “Net production … QUIN” value (ALL3.1 (B-ALL)) was 40.94 ± 140.3, the “Net production … 3-HK” value (KARPAS231 (B-ALL)) was 90.74 ± 9.3 and the “Net production … HAA” value (KARPAS231 (B-ALL)) was 244.46 ± 24.4. The “Net production … KA” value (KARPAS231 (B-ALL)) was −9.22 ± 3.8, the “Net production … KYN” value (KARPAS231 (B-ALL)) was 1247.28 ± 62.2 and the “Net production … QUIN” value (KARPAS231 (B-ALL)) was −26.02 ± 27.3. The “Net production … 3-HK” value (THP-1 (monocyte)) was 1.78 ± 1.9, the “Net production … KA” value (THP-1 (monocyte)) was −7.14 ± 5.2 and the “Net production … KYN” value (THP-1 (monocyte)) was 2593.4 ± 153.7. The “Net production … QUIN” value (THP-1 (monocyte)) was −26.4 ± 68^, the “Net production … 3-HK” value (CCF-STTG1 (astrocytoma)) was −12.24 ± 1.2 and the “Net production … HAA” value (CCF-STTG1 (astrocytoma)) was 8.88 ± 0.2. For the same substance, the “Net production … KA” value (CCF-STTG1 (astrocytoma)) was 8.2 ± 2.9, the “Net production … KYN” value (CCF-STTG1 (astrocytoma)) was 12049.08 ± 526 and the “Net production … QUIN” value (CCF-STTG1 (astrocytoma)) was 1.34 ± 16. The “Net production … 3-HK” value (CCRF-SB (B-ALL)) was 1.9 ± 7.3, the “Net production … HAA” value (CCRF-SB (B-ALL)) was 5.9 ± 0.5 and the “Net production … KA” value (CCRF-SB (B-ALL)) was −8.3 ± 5.5. For the same substance, the “Net production … KYN” value (CCRF-SB (B-ALL)) was 410.1 ± 79.1, the “Net production … QUIN” value (CCRF-SB (B-ALL)) was −53.44 ± 37.8 and the “Net production … 3-HK” value (HCN2 (cortical neuron)) was −4.84 ± 8.3. The “Net production … HAA” value (HCN2 (cortical neuron)) was 6.34 ± 1.1, the “Net production … KA” value (HCN2 (cortical neuron)) was 6.48 ± 4.8 and the “Net production … KYN” value (HCN2 (cortical neuron)) was 1597.26 ± 77. For the same substance, the “Net production … QUIN” value (HCN2 (cortical neuron)) was 25.26 ± 27.11, the “Net production … 3-HK” value (SUP-B15 (B-ALL)) was 18.5 ± 14.8 and the “Net production … HAA” value (SUP-B15 (B-ALL)) was 6.92 ± 0.9. The “Net production … KA” value (SUP-B15 (B-ALL)) was −7.42 ± 3.2, the “Net production … KYN” value (SUP-B15 (B-ALL)) was 299.52 ± 209^ and the “Net production … QUIN” value (SUP-B15 (B-ALL)) was −70 ± 31. For the same substance, the “Net production … 3-HK” value (RS4; 11 (B-ALL)) was 0.12 ± 1.4, the “Net production … KA” value (RS4; 11 (B-ALL)) was −2.8 ± 7.2 and the “Net production … KYN” value (RS4; 11 (B-ALL)) was 26.58 ± 19.7. The “Net production … QUIN” value (RS4; 11 (B-ALL)) was −4.26 ± 37.4, the “Net production … 3-HK” value (DOAY (medulloblastoma)) was −13.38 ± 1.5 and the “Net production … HAA” value (DOAY (medulloblastoma)) was 10.66 ± 0.9. The “Net production … KA” value (DOAY (medulloblastoma)) was 11.08 ± 0.9, the “Net production … KYN” value (DOAY (medulloblastoma)) was 6757.9 ± 129.3 and the “Net production … QUIN” value (DOAY (medulloblastoma)) was 34.8 ± 7^. The “Net production … 3-HK” value (BV173 (B-ALL)) was 1.06 ± 2.6, the “Net production … KA” value (BV173 (B-ALL)) was −4.58 ± 5^ and the “Net production … KYN” value (BV173 (B-ALL)) was 46.72 ± 51.1. For the same substance, the “Net production … QUIN” value (BV173 (B-ALL)) was 6.54 ± 42.2, the “Net production … 3-HK” value (HMC3 (microglia)) was 20.8 ± 20.5 and the “Net production … HAA” value (HMC3 (microglia)) was 0.76 ± 3.3. The “Net production … KA” value (HMC3 (microglia)) was 48.46 ± 25.8, the “Net production … KYN” value (HMC3 (microglia)) was 45327.9 ± 11654 and the “Net production … QUIN” value (HMC3 (microglia)) was 55.88 ± 34^.

Source: US20210181179A1, “DIAGNOSIS AND TREATMENT OF IMMUNOTHERAPY-INDUCED NEUROTOXICITY” (MEMORIAL SLOAN KETTERING CANCER CENTER, priority 2018, published 2021)
